Measurements taken from ChEMBL document CHEMBL1123398, “Conformationally restricted inhibitors of angiotensin converting enzyme: synthesis and computations” (J Med Chem, 1986).

Key:
[1] = target: T1, Angiotensin-converting enzyme (Homo sapiens, UniProt P12821); assay: Inhibitory concentration (isomer B) against Angiotensin I converting enzyme
[2] = target: T1, Angiotensin-converting enzyme; assay: Inhibitory concentration (isomer A) against Angiotensin I converting enzyme
[3] = target: T1, Angiotensin-converting enzyme; assay: Inhibitory concentration against Angiotensin I converting enzyme
[4] = target: T1, Angiotensin-converting enzyme; assay: Inhibitory concentration against Angiotensin I converting enzyme; IA is Inactive with 0% inhibition at 3.3 x 10e-4;

T1 sequence (P12821 whole entry): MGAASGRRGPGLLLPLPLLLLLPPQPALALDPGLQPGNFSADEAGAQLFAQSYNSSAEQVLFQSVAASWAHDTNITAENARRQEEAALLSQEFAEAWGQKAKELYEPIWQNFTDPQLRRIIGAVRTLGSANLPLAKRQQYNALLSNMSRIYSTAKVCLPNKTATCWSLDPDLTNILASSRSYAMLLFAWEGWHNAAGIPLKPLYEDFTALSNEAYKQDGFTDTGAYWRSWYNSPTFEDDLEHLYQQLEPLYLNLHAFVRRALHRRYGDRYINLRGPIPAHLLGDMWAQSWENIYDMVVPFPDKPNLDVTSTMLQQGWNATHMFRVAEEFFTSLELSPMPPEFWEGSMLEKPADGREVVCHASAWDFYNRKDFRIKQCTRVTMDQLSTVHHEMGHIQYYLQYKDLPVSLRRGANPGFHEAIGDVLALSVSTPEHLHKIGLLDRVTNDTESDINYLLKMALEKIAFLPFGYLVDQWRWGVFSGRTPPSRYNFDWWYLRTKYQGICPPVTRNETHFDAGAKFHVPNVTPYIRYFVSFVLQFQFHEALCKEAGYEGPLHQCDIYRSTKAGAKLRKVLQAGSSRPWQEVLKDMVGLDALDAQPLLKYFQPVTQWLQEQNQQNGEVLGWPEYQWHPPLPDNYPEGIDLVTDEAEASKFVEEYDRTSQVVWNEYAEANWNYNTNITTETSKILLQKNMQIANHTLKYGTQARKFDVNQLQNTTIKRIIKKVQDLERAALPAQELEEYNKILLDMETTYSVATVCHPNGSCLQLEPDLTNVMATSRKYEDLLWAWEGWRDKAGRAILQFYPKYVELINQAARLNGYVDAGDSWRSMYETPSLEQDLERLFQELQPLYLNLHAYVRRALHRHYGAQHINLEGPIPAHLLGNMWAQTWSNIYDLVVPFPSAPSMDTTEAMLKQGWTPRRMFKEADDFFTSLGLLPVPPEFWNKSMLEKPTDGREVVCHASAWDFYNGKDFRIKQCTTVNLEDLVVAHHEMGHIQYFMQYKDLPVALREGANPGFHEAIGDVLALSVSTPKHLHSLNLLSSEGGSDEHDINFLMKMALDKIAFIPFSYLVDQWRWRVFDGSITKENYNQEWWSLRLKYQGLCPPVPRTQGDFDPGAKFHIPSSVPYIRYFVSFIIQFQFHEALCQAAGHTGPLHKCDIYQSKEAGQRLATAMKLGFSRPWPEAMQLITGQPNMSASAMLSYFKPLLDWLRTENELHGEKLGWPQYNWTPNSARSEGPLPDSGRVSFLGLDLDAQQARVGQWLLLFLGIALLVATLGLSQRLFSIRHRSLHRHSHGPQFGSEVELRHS

| Structure (SMILES) | IC50 [1] [µM] | IC50 [2] [µM] | IC50 [3] [µM] | IC50 [4] |
| --- | --- | --- | --- | --- |
| O=C(O)CN1CCCCC[C@H](N[C@@H](CCc2ccccc2)C(=O)O)C1=O | 0.002 | – | – | – |
| O=C(O)CN1CCCC(NC(CCc2ccccc2)C(=O)O)C1=O (stereo unspecified) | 1.7 | 0.43 | – | – |
| NC1CCCN(CC(=O)O)C1=O (stereo unspecified) | – | – | 1700 | – |
| NC1CCN(CC(=O)O)C1=O (stereo unspecified) | – | – | – | Not Active |
| NC1CCCCN(CC(=O)O)C1=O (stereo unspecified) | – | – | 480 | – |
| O=C(O)CN1CCCCC[C@@H](N[C@H](CCc2ccccc2)C(=O)O)C1=O | 0.092 | – | – | – |
| NC1CCCCCN(CC(=O)O)C1=O (stereo unspecified) | – | – | 440 | – |
| O=C(O)CN1CCCCC(NC(CCc2ccccc2)C(=O)O)C1=O (stereo unspecified) | 0.019 | 0.7 | – | – |
| O=C(O)CN1CCCCCC(NC(CCc2ccccc2)C(=O)O)C1=O (stereo unspecified) | 0.0048 | 1.7 | – | – |
| O=C(O)CN1CCC(NC(CCc2ccccc2)C(=O)O)C1=O (stereo unspecified) | 19 | 12 | – | – |
| O=C(O)CN1CCCCCCC(NC(CCc2ccccc2)C(=O)O)C1=O (stereo unspecified) | 0.0081 | 1.3 | – | – |
